In US7345091B2, “Carotenoid ether analogs or derivatives for the inhibition and amelioration of disease” (Cardax Pharmaceuticals, Inc., priority 2002, dated 2008):
Entries after “also recorded” stand apart in the source; their conditions may differ. Structures can show the parent of a compound that is named as a salt.

Tests used:
male ICR mice = assay: LPS/galactosamine-induced liver injury (plasma ALT); type: in vivo, mouse; conditions: for LPS-induced ALT elevation: 500 mg/kg oral gavage in emulsion 2 hours before LPS/D-galactosamine IP, 5 hours
Description: Three-month old male ICR mice were treated with LPS and galactosamine in order to induce liver injury (Leist, 1995). Mice were first orally gavaged with either an olive oil/water/lecithin emulsion (10 mL/kg, or 0.3 mL for a 30 gram mouse), or the same emulsion containing the disodium disuccinate astaxanthin derivative XVI (50 mg/mL) for a final disodium disuccinate astaxanthin dose of 500 mg/kg. Two hours later mice were injected intraperitoneally (IP) with either saline (10 mL/kg) or a solution of E. coli LPS (3 mg/kg, Sigma catalog number L-3755) and D-galactosamine (700 mg/kg). Animals were sacrificed by carbon dioxide (CO2) asphyxiation 5 hours after the IP injection, and plasma was then collected for ALT determination.

[1] = Single dose oral plasma pharmacokinetics; type: in vivo, male C57BL/6 mice; conditions: free astaxanthin, single 500 mg/kg oral dose
Description: Single dose oral pharmacokinetic parameters (including Cmax, Tmax, AUC(0-72) Vd, and clearance) of the disodium disuccinate astaxanthin derivative XVI were determined in male C57BL/6 mice. The animals were administered the derivative orally at a single maximum dose (500 mg/kg) shown in prior studies to likely be efficacious in preventing the injury secondary to CCl4-administration in Sprague-Dawley rats (100 mg/kg body weight in those studies). Samples for HPLC analysis of levels of free astaxanthin in plasma and liver were obtained at the following time points, from at least 3 animals per time point: Time 0 [Immediately Before Dosing of Test Compound], 2, 4, 6, 8, 12, 16, 24, 48, and 72 Hours After Ingestion. Additional samples, with N<3, were taken at other intervals (10, 14, and 36 hours; Tables 2 and 3). Non-esterified, free astaxanthin levels were determined in this study as carotenoid esters are completely cleaved in the mammalian gut to free carotenoid, which moves passively across the enterocyte. 5 Male C57BL/6 mice, approximately 25 g, were housed in cages (three mice/cage) and fed standard mouse chow (Purina Mouse Chow, Ralston Purina, St. Louis) and water ad libitum for at least five days prior to the start of the experiment. […]

CC1=C(/C=C/C(C)=C/C=C/C(C)=C/C=C/C=C(C)/C=C/C=C(C)/C=C/C2=C(C)C(=O)C(OC(=O)CCC(=O)O)CC2(C)C)C(C)(C)CC(OC(=O)CCC(=O)O)C1=O (racemic) [XVI, Disodium Salt of the Disuccinic Acid Ester of Astaxanthin]
LPS-induced ALT elevation (male ICR mice): substantially reduced
LPS-induced ALT elevation (male ICR mice; listed as disodium disuccinate astaxanthin derivative): reduced induced levels of ALT
effect on plasma ALT in saline injected (sham-treated) animals (male ICR mice; 500 mg/kg oral gavage in emulsion, listed as disodium disuccinate astaxanthin derivative): no effect on plasma ALT; also recorded: no effect on background levels of ALT
Oral clearance [1]: 216.822 L/h
